# Assay results published in ChEMBL document CHEMBL1201862, “PubChem BioAssay data set” (2004).
#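 Dose response: 5 concentrations. Exposure: 48 h. Format: 96-well plates. Endpoint: linear interpolation; highest concentration if not reached. GI50 marks 50% less growth.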 Calls of active or inactive are those of the source. Cut-off read from the data, not from the text of the source: active = GI50 up to about 1.1 µM and inactive = higher.
# Experiments:
# Test in all cases: growth of human tumour cells (NCI), 48 h
# 786-0 = system: 786-0
# A498 = system: A498
# A549 = system: A549
# ACHN = system: ACHN
# BT-549 = system: BT-549
# CAKI-1 = system: CAKI-1
# CCRF-CEM = system: CCRF-CEM
# COLO 205 = system: COLO 205
# DU-145 = system: DU-145
# EKVX = system: EKVX
# HCC 2998 = system: HCC 2998
# HCT-116 = system: HCT-116
# HCT-15 = system: HCT-15
# HL-60 = system: HL-60
# HOP-62 = system: HOP-62
# HOP-92 = system: HOP-92
# HT-29 = system: HT-29
# Hs-578T = system: Hs-578T
# IGROV-1 = system: IGROV-1
# K562 = system: K562
# KM12 = system: KM12
# LOX IMVI = system: LOX IMVI
# M14 = system: M14
# MCF7 = system: MCF7
# MDA-MB-231 = system: MDA-MB-231
# MDA-MB-435 = system: MDA-MB-435
# MDA-N = system: MDA-N
# MOLT-4 = system: MOLT-4
# Malme-3M = system: Malme-3M
# NCI-H226 = system: NCI-H226
# NCI-H23 = system: NCI-H23
# NCI-H460 = system: NCI-H460
# NCI-H522 = system: NCI-H522
# NCI/ADR-RES = system: NCI/ADR-RES
# OVCAR-3 = system: OVCAR-3
# OVCAR-4 = system: OVCAR-4
# OVCAR-5 = system: OVCAR-5
# OVCAR-8 = system: OVCAR-8
# PC-3 = system: PC-3
# RPMI-8226 = system: RPMI-8226
# RXF 393 = system: RXF 393
# SF-268 = system: SF-268
# SF-295 = system: SF-295
# SF-539 = system: SF-539
# SK-MEL-28 = system: SK-MEL-28
# SK-MEL-2 = system: SK-MEL-2
# SK-MEL-5 = system: SK-MEL-5
# SK-OV-3 = system: SK-OV-3
# SN12C = system: SN12C
# SNB-19 = system: SNB-19
# SNB-75 = system: SNB-75
# SR = system: SR
# SW-620 = system: SW-620
# T47D = system: T47D
# TK-10 = system: TK-10
# U-251 = system: U-251
# UACC-257 = system: UACC-257
# UACC-62 = system: UACC-62
# UO-31 = system: UO-31
compound,measurement,setting,value
CCCCC1(N=[N+]=[N-])C(=O)C2C=CC=C3c4ccccc4N(C1=O)C32 (stereo not drawn),GI50,786-0,22 µM (inactive)
same,GI50,A498,> 10 µM (inactive)
same,GI50,A549,19.5 µM (inactive)
same,GI50,ACHN,17.5 µM (inactive)
same,GI50,BT-549,24.5 µM (inactive)
same,GI50,CAKI-1,19.8 µM (inactive)
same,GI50,CCRF-CEM,18.5 µM (inactive)
same,GI50,COLO 205,18.5 µM (inactive)
same,GI50,DU-145,58.5 µM (inactive)
same,GI50,EKVX,17.8 µM (inactive)
same,GI50,HCC 2998,15.6 µM (inactive)
same,GI50,HCT-116,18.1 µM (inactive)
same,GI50,HCT-15,17.2 µM
same,GI50,HL-60,34 µM (inactive)
same,GI50,HOP-62,27.1 µM (inactive)
same,GI50,HOP-92,> 10 µM (inactive)
same,GI50,HT-29,14.1 µM (inactive)
same,GI50,Hs-578T,12.3 µM (inactive)
same,GI50,IGROV-1,11.3 µM (inactive)
same,GI50,K562,17.3 µM (inactive)
same,GI50,KM12,24.8 µM (inactive)
same,GI50,LOX IMVI,17.9 µM (inactive)
same,GI50,M14,19.3 µM (inactive)
same,GI50,MCF7,17.1 µM (inactive)
same,GI50,MDA-MB-231,23.6 µM (inactive)
same,GI50,MDA-MB-435,19.1 µM (inactive)
same,GI50,MDA-N,15.7 µM (inactive)
same,GI50,MOLT-4,15.3 µM (inactive)
same,GI50,Malme-3M,23 µM (inactive)
same,GI50,NCI-H226,21.3 µM (inactive)
same,GI50,NCI-H23,14.4 µM (inactive)
same,GI50,NCI-H460,17.2 µM (inactive)
same,GI50,NCI-H522,13.6 µM (inactive)
same,GI50,NCI/ADR-RES,17.7 µM (inactive)
same,GI50,OVCAR-3,21.6 µM (inactive)
same,GI50,OVCAR-4,21.6 µM (inactive)
same,GI50,OVCAR-5,19.8 µM (inactive)
same,GI50,OVCAR-8,20.1 µM (inactive)
same,GI50,PC-3,18.9 µM (inactive)
same,GI50,RPMI-8226,17.7 µM (inactive)
same,GI50,RXF 393,13.7 µM (inactive)
same,GI50,SF-268,19.9 µM (inactive)
same,GI50,SF-295,24.7 µM (inactive)
same,GI50,SF-539,20 µM (inactive)
same,GI50,SK-MEL-28,78.2 µM (inactive)
same,GI50,SK-MEL-2,11 µM (inactive)
same,GI50,SK-MEL-5,16.4 µM (inactive)
same,GI50,SK-OV-3,25.8 µM (inactive)
same,GI50,SN12C,30.1 µM (inactive)
same,GI50,SNB-19,22.1 µM (inactive)
same,GI50,SNB-75,11.6 µM (inactive)
same,GI50,SR,> 10 µM (inactive)
same,GI50,SW-620,20.2 µM (inactive)
same,GI50,T47D,14.1 µM (inactive)
same,GI50,TK-10,16.4 µM (inactive)
same,GI50,U-251,18.7 µM (inactive)
same,GI50,UACC-257,18.4 µM (inactive)
same,GI50,UACC-62,23.1 µM (inactive)
same,GI50,UO-31,18.8 µM (inactive)
COc1ccc(C(C)NNC(=O)c2cc[n+]([BH2-]C#N)cc2)cc1OC (stereo not drawn),GI50,786-0,> 100 µM (inactive)
same,GI50,A498,> 100 µM (inactive)
same,GI50,A549,> 100 µM (inactive)
same,GI50,ACHN,> 100 µM (inactive)
same,GI50,BT-549,> 100 µM (inactive)
same,GI50,CAKI-1,> 100 µM (inactive)
same,GI50,CCRF-CEM,> 100 µM (inactive)
same,GI50,COLO 205,> 100 µM (inactive)
same,GI50,DU-145,> 100 µM (inactive)
same,GI50,EKVX,> 100 µM (inactive)
same,GI50,HCC 2998,> 100 µM (inactive)
same,GI50,HCT-116,> 100 µM (inactive)
same,GI50,HCT-15,> 100 µM
same,GI50,HL-60,> 100 µM (inactive)
same,GI50,HOP-62,> 100 µM (inactive)
same,GI50,HOP-92,> 100 µM (inactive)
same,GI50,HT-29,> 100 µM (inactive)
same,GI50,Hs-578T,> 100 µM (inactive)
same,GI50,IGROV-1,> 100 µM (inactive)
same,GI50,K562,> 100 µM (inactive)
same,GI50,KM12,> 100 µM (inactive)
same,GI50,LOX IMVI,> 100 µM (inactive)
same,GI50,M14,> 100 µM (inactive)
same,GI50,MCF7,> 100 µM (inactive)
same,GI50,MDA-MB-231,> 100 µM (inactive)
same,GI50,MDA-MB-435,> 100 µM (inactive)
same,GI50,MDA-N,> 100 µM (inactive)
same,GI50,MOLT-4,> 100 µM (inactive)
same,GI50,Malme-3M,> 100 µM (inactive)
same,GI50,NCI-H226,> 100 µM (inactive)
same,GI50,NCI-H23,> 100 µM (inactive)
same,GI50,NCI-H460,> 100 µM (inactive)
same,GI50,NCI-H522,> 100 µM (inactive)
same,GI50,NCI/ADR-RES,> 100 µM (inactive)
same,GI50,OVCAR-3,> 100 µM (inactive)
same,GI50,OVCAR-4,> 100 µM (inactive)
same,GI50,OVCAR-5,> 100 µM (inactive)
same,GI50,OVCAR-8,> 100 µM (inactive)
same,GI50,PC-3,> 100 µM (inactive)
same,GI50,RPMI-8226,> 100 µM (inactive)
same,GI50,RXF 393,> 100 µM (inactive)
same,GI50,SF-268,> 100 µM (inactive)
same,GI50,SF-295,> 100 µM (inactive)
same,GI50,SF-539,> 100 µM (inactive)
same,GI50,SK-MEL-28,> 100 µM (inactive)
same,GI50,SK-MEL-2,> 100 µM (inactive)
same,GI50,SK-MEL-5,> 100 µM (inactive)
same,GI50,SK-OV-3,54.3 µM (inactive)
same,GI50,SN12C,> 100 µM (inactive)
same,GI50,SNB-19,> 100 µM (inactive)
same,GI50,SNB-75,> 100 µM (inactive)
same,GI50,SR,> 100 µM (inactive)
same,GI50,SW-620,> 100 µM (inactive)
same,GI50,T47D,> 100 µM (inactive)
same,GI50,TK-10,> 100 µM (inactive)
same,GI50,U-251,> 100 µM (inactive)
same,GI50,UACC-257,> 100 µM (inactive)
same,GI50,UACC-62,> 100 µM (inactive)
same,GI50,UO-31,> 100 µM (inactive)
